Reference: patent publication US20220119460A1, “Means and Methods to Overrule Glucose-Mediated Repression of Respiration in Yeast” (priority 2019, published 2022)

How the values were obtained:
[1] = test system: S. cerevisiae strain AN63; test: Population growth lag time measurement, gradual glucose-to-galactose shift with antimycin A; assay type: cell-based; settings: 3 μg/ml antimycin A in medium; 0.5% glucose plus 5% galactose; wild type and 41 respiratory deletion mutants (FIG. 2B)
Protocol: Population Growth Lag Time Measurements (Antimycin a Treatment and Glucose-to-Galactose Shift).
All population growth measurements were performed using Bioscreen C machines (Growth Curves USA). For the gradual shift experiments, cells were inoculated in a 96-well plate containing YP plus 5% glucose (high-glucose [HG]) medium and serially diluted for growth overnight at 30° C. shaking at 900 rpm. Cultures at an OD600 of 0.1 were transferred to a new plate and serially diluted in fresh HG medium for growth overnight. The next day, cultures at an OD600 of 0.1 were washed three times into YP plus 0.5% glucose (low glucose [LG]) plus the appropriate carbohydrate source, with or without 3 μg/ml of antimycin A, and diluted so that the initial cell concentration for the Bioscreen C measurements was 10^5 cells/ml. […]
where the cx subscript stands for corrected and the me subscript stands for measured.
(§1) The growth rate was then obtained by calculating the discrete derivative of In(OD600,me) versus time. […] In the case of two exponential phases in the growth curve (i.e., conditions with a mix of carbon sources in the medium), the maximum growth rate for each phase (maxR1, maxR2) was detected. Once these parameters were determined, the lag time was calculated by the time difference between two time points: the start and the end. […]

[2] = test system: S. cerevisiae strain AN63; test: Growth rate in stable sugar conditions (5% galactose) with antimycin A; assay type: cell-based; settings: 41 respiratory deletion mutants, compared with slowest growing mutants without the compound (FIG. 2D)
Protocol: All population growth measurements were performed using Bioscreen C machines (Growth Curves USA). For the gradual shift experiments, cells were inoculated in a 96-well plate containing YP plus 5% glucose (high-glucose [HG]) medium and serially diluted for growth overnight at 30° C. shaking at 900 rpm. Cultures at an OD600 of 0.1 were transferred to a new plate and serially diluted in fresh HG medium for growth overnight. The next day, cultures at an OD600 of 0.1 were washed three times into YP plus 0.5% glucose (low glucose [LG]) plus the appropriate carbohydrate source, with or without 3 μg/ml of antimycin A, and diluted so that the initial cell concentration for the Bioscreen C measurements was 10^5 cells/ml. OD600 measurements were taken every 15 min for 7 days or until the cultures reached stationary phase.
The same procedure was followed for the stationary growth experiments, replacing the HG medium from pregrowth and the final growth medium with 5% galactose. […]
as §1

Substance: antimycin A
- prolongation of the lag times [1]: up to 2.2 fold
- growth rate in the presence of antimycin A [2]: equally low growth rates
